pIC50, pKi: −log10 of the molar value.
Target: T1, human V3 receptor (Homo sapiens, UniProt P47901)
T1 construct: expressed in transfected cells
T1 sequence (P47901 1-424): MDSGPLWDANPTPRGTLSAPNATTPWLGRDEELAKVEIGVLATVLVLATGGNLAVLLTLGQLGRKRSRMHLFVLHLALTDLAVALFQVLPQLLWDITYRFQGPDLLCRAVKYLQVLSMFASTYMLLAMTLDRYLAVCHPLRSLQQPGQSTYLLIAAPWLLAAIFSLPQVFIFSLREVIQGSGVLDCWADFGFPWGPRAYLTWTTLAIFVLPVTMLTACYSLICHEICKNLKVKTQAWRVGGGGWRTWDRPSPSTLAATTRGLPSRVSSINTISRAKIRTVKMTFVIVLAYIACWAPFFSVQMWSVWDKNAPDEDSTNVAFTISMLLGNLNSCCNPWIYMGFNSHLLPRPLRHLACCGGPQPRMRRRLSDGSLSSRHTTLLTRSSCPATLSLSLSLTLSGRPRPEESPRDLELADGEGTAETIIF
Assay: [3H]AVP binding to CHO cells stably expressing the human V3 receptor
Settings: [3H]AVP 2.5x10^-9 mol/L
Method: Chinese Hamster Ovary (CHO) cells stably expressing the human V3 receptor were incubated to equilibrium with the test compound (at a final assay concentration of 10^−10 mol.L^−1 to 10^−5 mol.L^−1) and [^3H]AVP (at a final assay concentration of 2.5×10^−9 mol.L^−1). […] After washing with ice-cold phosphate buffered saline (PBS), scintillation fluid was added and the plates counted on a Topcount NXT apparatus.
A sigmoidal dose response curve (non-linear regression, variable slope) was plotted as concentration of test compound (mol.L^−1) against percentage specific binding of [^3H]AVP and a Ki value was calculated. Each determination was carried out in triplicate and repeated on at least 3 separate occasions

Compared with `COc1cccc(-c2cc3ccc(OC[C@@H](C)CN4CCCCC4)cc3c(=O)n2CC(=O)NC(C)C)c1` [EXAMPLE 14, N-Isopropyl-2-[3-(3-methoxyphenyl)-7-((S)-2-methyl-3-piperidin-1-ylpropoxy)-1-oxo-1H-isoquinolin-2-yl]acetamide], `CC(C)NC(=O)Cn1c(-c2ccccc2)cc2ccc(OCCCN3CCCCC3)cc2c1=O` [EXAMPLE 26, N-Isopropyl-2-[1-oxo-3-phenyl-7-(3-piperidin-1-ylpropoxy)-1H-isoquinolin-2-yl]acetamide] is higher in pKi: 6.00 to 7.00 for the first, greater than 8.00 for the second.

First: CC(C)NC(=O)Cn1c(-c2cccc(Cl)c2)cc2ccc(-c3cccc(CN4CCCCC4)c3)cc2c1=O [EXAMPLE 35, 2-[3-(3-Chlorophenyl)-1-oxo-7-(3-piperidin-1-ylmethylphenyl)-1H-isoquinolin-2-yl]-N-isopropylacetamide]
Second: CC(C)(C)NC(=O)Cn1c(-c2ccc(F)c(Cl)c2)cc2ccc(OCCCN3CCCC3)cc2c1=O [EXAMPLE 28, N-tert-Butyl-2-[3-(3-chloro-4-fluorophenyl)-1-oxo-7-(3-pyrrolidin-1-ylpropoxy)-1H-isoquinolin-2-yl]acetamide]
The pKi of the first is higher: 7.00 to 8.00 for the first, 6.00 to 7.00 for the second.

`CC(C)NC(=O)Cn1c(-c2cccc(F)c2)cc2ccc(OC[C@@H](C)CN(C)C)cc2c1=O` [EXAMPLE 3, 2-[7-((S)-3-Dimethylamino-2-methylpropoxy)-3-(3-fluorophenyl)-1-oxo-1H-isoquinolin-2-yl]-N-isopropylacetamide] and `COc1cccc(-c2cc3ccc(OCCCN4CCCC4)cc3c(=O)n2CC(=O)NC(C)(C)C)n1` [EXAMPLE 23, N-tert-Butyl-2-[3-(6-methoxypyridin-2-yl)-1-oxo-7-(3-pyrrolidin-1-ylpropoxy)-1H-isoquinolin-2-yl]acetamide] fall in the same range of pKi: 7.00 to 8.00 for the first, 7.00 to 8.00 for the second.

Target: T2, V3 receptor (Rattus norvegicus, UniProt P48974)
T2 construct: Anterior pituitary corticotrophs were prepared from adult female Sprague-Dawley rats; endogenous in cells; host or cells: primary anterior pituitary corticotrophs from adult female Sprague-Dawley rats
T2 sequence (P48974 1-425): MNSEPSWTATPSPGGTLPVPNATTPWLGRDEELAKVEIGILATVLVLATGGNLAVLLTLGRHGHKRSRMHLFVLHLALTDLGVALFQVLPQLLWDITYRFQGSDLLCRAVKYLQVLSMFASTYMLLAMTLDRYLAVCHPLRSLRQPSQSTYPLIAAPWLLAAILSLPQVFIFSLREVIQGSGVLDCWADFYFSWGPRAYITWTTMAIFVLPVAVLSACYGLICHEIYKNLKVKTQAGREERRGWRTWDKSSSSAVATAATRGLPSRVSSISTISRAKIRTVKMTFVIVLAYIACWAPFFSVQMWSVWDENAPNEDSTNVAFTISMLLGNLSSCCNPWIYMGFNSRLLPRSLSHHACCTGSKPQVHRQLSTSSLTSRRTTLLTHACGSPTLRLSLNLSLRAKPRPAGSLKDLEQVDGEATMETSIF
Assay: Block of AVP-induced ACTH release from isolated rat anterior pituitary corticotrophs
Format: cell-based
Settings: ACTH release after 3x10^-9 mol/L AVP for 120 minutes; ELISA; read-out: V3 receptor antagonism in isolated rat anterior pituitary cells
Method: The ability of compounds of the invention to act as V3 antagonists in a physiologically relevant system was determined by measuring their ability to block the release of adrenocorticotropic hormone (ACTH) from anterior pituitary corticotrophs in response to treatment with arginine vasopressin (AVP).
Anterior pituitary corticotrophs were prepared from adult female Sprague-Dawley rats and seeded into 48 well plates. The cells were cultured for 4 days prior to exposure to compound. Test compounds were prepared at 10^−5 mol.L^−1 in 100% DMSO. Cells were exposed to a dose response of test compounds for 20 minutes (10^−8 mol.L^−1−10^−5 mol.L^−1). The final concentration of DMSO in the assay was kept constant at 0.3%. The cells were then exposed to 3×10^−9 mol.L^−1 AVP for 120 minutes. Supernatants were harvested and stored at −20° C. ACTH levels were subsequently measured by ELISA following the manufacturer's instructions (Immunodiagnostic systems, UK (Cat No. DX-SDX018)). Each treatment was carried out in quadruplicate and a mean value obtained for the amount of ACTH released. The degree of antagonism was then calculated as a percentage of the amount of ACTH released by agonist alone after adjustment for basal levels of ACTH. A pIC50 was calculated by fitting a Sigmoidal dose response (variable slope) curve with a non-linear (fit) to the data using the software package GraphPad prism. […]

First: CC(C)(C)NC(=O)Cn1c(-c2cccc(Cl)c2)cc2ccc(OCCCN3CCC(O)CC3)cc2c1=O [EXAMPLE 17, N-tert-Butyl-2-{3-(3-Chlorophenyl)-7-[3-(4-hydroxypiperidin-1-yl)-propoxy]-1-oxo-1H-isoquinolin-2-yl}-acetamide]
Second: CC(C)NC(=O)Cn1c(-c2cccc(Cl)c2)cc2ccc(OC[C@@H](C)CN3CCCC3)cc2c1=O [EXAMPLE 1, 2-[3-(3-Chlorophenyl)-7-((S)-2-methyl-3-pyrrolidin-1-ylpropoxy)-1-oxo-1H-isoquinolin-2-yl]-N-isopropylacetamide]
The pIC50 of the first is higher: 7.00 to 8.00 for the first, 6.00 to 7.00 for the second.

Source: patent publication US7906504B2, “2-(1-oxo-1H-isoquinolin-2-yl)acetamide derivatives” (N.V. Organon, priority 2006, dated 2011)
